Laboratory results taken from ChEMBL document CHEMBL3784999, “Investigation of 4-amino-5-alkynylpyrimidine-2(1H)-ones as anti-mycobacterial agents” (Bioorg Med Chem, 2016).
In brackets after ≈: the same amount, converted by molar mass. Activity calls are given as the source filed them. The calls are words filed in the database; no cut-off is given here.

Key:
Mycobacterium avium = assay: Antimycobacterial activity against Mycobacterium avium ATCC 25291 assessed as inhibition of mycobacterial replication after 6 days by microplate Alamar blue assay; type: functional, Mycobacterium avium subsp. avium ATCC 25291; conditions: ATCC 25291, 144 h
[1] = tested on: Mycobacterium tuberculosis; assay: Antimycobacterial activity against Mycobacterium tuberculosis H37Ra assessed as inhibition of mycobacterial replication after 6 days by microplate Alamar blue assay; type: functional; conditions: 144 h
[2] = tested on: Mycobacterium tuberculosis; assay: Antimycobacterial activity against Mycobacterium tuberculosis H37Ra assessed as inhibition of mycobacterial replication at 200 ug/ml after 6 days by microplate Alamar blue assay; type: functional; conditions: 144 h
[3] = tested on: Mycobacterium tuberculosis; assay: Antimycobacterial activity against Mycobacterium tuberculosis H37Ra assessed as inhibition of mycobacterial replication at 100 ug/ml after 6 days by microplate Alamar blue assay; type: functional; conditions: 144 h
[4] = tested on: Mycobacterium tuberculosis; assay: Antimycobacterial activity against Mycobacterium tuberculosis H37Ra assessed as inhibition of mycobacterial replication at 50 ug/ml after 6 days by microplate Alamar blue assay; type: functional; conditions: 144 h
[5] = tested on: Mycobacterium tuberculosis; assay: Antimycobacterial activity against Mycobacterium tuberculosis H37Ra assessed as inhibition of mycobacterial replication at 25 ug/ml after 6 days by microplate Alamar blue assay; type: functional; conditions: 144 h
[6] = tested on: Mycobacterium tuberculosis; assay: Antimycobacterial activity against Mycobacterium tuberculosis H37Ra assessed as inhibition of mycobacterial replication at 6.25 ug/ml after 6 days by microplate Alamar blue assay in presence of isoniazid; type: functional; conditions: 144 h
[7] = tested on: Mycobacterium tuberculosis; assay: Antimycobacterial activity against Mycobacterium tuberculosis H37Ra assessed as inhibition of mycobacterial replication at 6.25 ug/ml after 6 days by microplate Alamar blue assay in absence of isoniazid; type: functional, organism-based
[8] = tested on: Mycobacterium tuberculosis; assay: Ratio MIC90 for Mycobacterium tuberculosis H37Ra in presence of isoniazid to MIC90 for Mycobacterium tuberculosis H37Ra in absence of isoniazid; type: functional
[9] = tested on: Mycobacterium tuberculosis; assay: Antimycobacterial activity against Mycobacterium tuberculosis H37Ra infected in BALB/c mouse assessed as reduction of bacterial load in lung at 25 mg/kg, po administered for 2 weeks started on day 4 post bacterial infection measured 3 days post last dose; type: functional
[10] = tested on: Mycobacterium tuberculosis; assay: Antimycobacterial activity against Mycobacterium tuberculosis H37Ra infected in BALB/c mouse assessed as reduction of bacterial load in liver at 25 mg/kg, po administered for 2 weeks started on day 4 post bacterial infection measured 3 days post last dose; type: functional
[11] = tested on: Mycobacterium tuberculosis; assay: Antimycobacterial activity against Mycobacterium tuberculosis H37Ra infected in BALB/c mouse assessed as reduction of bacterial load in spleen at 25 mg/kg, po administered for 2 weeks started on day 4 post bacterial infection measured 3 days post last dose; type: functional
[12] = tested on: Mycobacterium tuberculosis; assay: Antimycobacterial activity against Mycobacterium tuberculosis H37Ra infected in BALB/c mouse assessed as reduction of bacterial load in lung at 12.5 mg/kg, po administered for 2 weeks started on day 4 post bacterial infection measured 3 days post last dose co-treated with 1 mg/kg, po isoniazid; type: functional
[13] = tested on: Mycobacterium tuberculosis; assay: Antimycobacterial activity against Mycobacterium tuberculosis H37Ra infected in BALB/c mouse assessed as reduction of bacterial load in liver at 12.5 mg/kg, po administered for 2 weeks started on day 4 post bacterial infection measured 3 days post last dose co-treated with 1 mg/kg, po isoniazid; type: functional
[14] = tested on: Mycobacterium tuberculosis; assay: Antimycobacterial activity against Mycobacterium tuberculosis H37Ra infected in BALB/c mouse assessed as reduction of bacterial load in spleen at 12.5 mg/kg, po administered for 2 weeks started on day 4 post bacterial infection measured 3 days post last dose co-treated with 1 mg/kg, po isoniazid; type: functional
[15] = tested on: Mycobacterium tuberculosis; assay: Antimycobacterial activity against Mycobacterium tuberculosis H37Ra infected in BALB/c mouse assessed as reduction of bacterial load in lung at 6.25 to 6.25 mg/kg, po administered for 2 weeks started on day 4 post bacterial infection measured 3 days post last dose; type: functional, organism-based
[16] = tested on: Mycobacterium tuberculosis; assay: Antimycobacterial activity against Mycobacterium tuberculosis H37Ra infected in BALB/c mouse assessed as reduction of bacterial load in liver at 6.25 to 6.25 mg/kg, po administered for 2 weeks started on day 4 post bacterial infection measured 3 days post last dose; type: functional, organism-based
[17] = tested on: Mycobacterium tuberculosis; assay: Antimycobacterial activity against Mycobacterium tuberculosis H37Ra infected in BALB/c mouse assessed as reduction of bacterial load in spleen at 6.25 to 6.25 mg/kg, po administered for 2 weeks started on day 4 post bacterial infection measured 3 days post last dose; type: functional, organism-based
[18] = tested on: Mycobacterium tuberculosis; assay: Antimycobacterial activity against Mycobacterium tuberculosis H37Ra infected in BALB/c mouse assessed as reduction in bacterial activity in lung at 6.25 mg/kg, po administered for 2 weeks started on day 4 post bacterial infection measured 3 days post last dose co-treated with 1 mg/kg, po isoniazid; type: functional
[19] = tested on: Mycobacterium tuberculosis; assay: Antimycobacterial activity against Mycobacterium tuberculosis H37Ra infected in BALB/c mouse assessed as reduction in bacterial activity in spleen at 6.25 mg/kg, po administered for 2 weeks started on day 4 post bacterial infection measured 3 days post last dose co-treated with 1 mg/kg, po isoniazid; type: functional
Mus musculus [20] = assay: Toxicity in BALB/c mouse infected with Mycobacterium tuberculosis H37Ra assessed as weight loss at 6.25 to 25 mg/kg, po administered for 2 weeks started on day 4 post bacterial infection; type: organism-based; conditions: in vivo, 336 h
Mus musculus [21] = assay: Toxicity in BALB/c mouse infected with Mycobacterium tuberculosis H37Ra assessed as behavioral changes at 6.25 to 25 mg/kg, po administered for 2 weeks started on day 4 post bacterial infection; type: organism-based; conditions: in vivo, 336 h
Mus musculus [22] = assay: Toxicity in BALB/c mouse infected with Mycobacterium tuberculosis H37Ra assessed as change in urea level in serum at 6.25 to 25 mg/kg, po administered for 2 weeks started on day 4 post bacterial infection; type: organism-based; conditions: in vivo, 336 h
Mus musculus [23] = assay: Toxicity in BALB/c mouse infected with Mycobacterium tuberculosis H37Ra assessed as change in creatinine level in serum at 6.25 to 25 mg/kg, po administered for 2 weeks started on day 4 post bacterial infection; type: organism-based; conditions: in vivo, 336 h
Mus musculus [24] = assay: Toxicity in BALB/c mouse infected with Mycobacterium tuberculosis H37Ra assessed as change in phosphate level in serum at 6.25 to 25 mg/kg, po administered for 2 weeks started on day 4 post bacterial infection; type: organism-based; conditions: in vivo, 336 h
Mus musculus [25] = assay: Toxicity in BALB/c mouse infected with Mycobacterium tuberculosis H37Ra assessed as change in calcium level in serum at 6.25 to 25 mg/kg, po administered for 2 weeks started on day 4 post bacterial infection; type: organism-based; conditions: in vivo, 336 h
Mus musculus [26] = assay: Toxicity in BALB/c mouse infected with Mycobacterium tuberculosis H37Ra assessed as change in cholesterol level in serum at 6.25 to 25 mg/kg, po administered for 2 weeks started on day 4 post bacterial infection; type: organism-based; conditions: in vivo, 336 h
Mus musculus [27] = assay: Toxicity in BALB/c mouse infected with Mycobacterium tuberculosis H37Ra assessed as change in alkaline phosphatase level in serum at 6.25 to 25 mg/kg, po administered for 2 weeks started on day 4 post bacterial infection; type: organism-based; conditions: in vivo, 336 h
Mus musculus [28] = assay: Toxicity in BALB/c mouse infected with Mycobacterium tuberculosis H37Ra assessed as change in amylase level in serum at 6.25 to 25 mg/kg, po administered for 2 weeks started on day 4 post bacterial infection; type: organism-based; conditions: in vivo, 336 h
Mus musculus [29] = assay: Toxicity in BALB/c mouse infected with Mycobacterium tuberculosis H37Ra at 6.25 to 25 mg/kg, po administered for 2 weeks started on day 4 post bacterial infection by necroscopy; type: organism-based; conditions: in vivo, 336 h
Mus musculus [30] = assay: Toxicity in BALB/c mouse infected with Mycobacterium tuberculosis H37Ra at 6.25 to 25 mg/kg, po administered for 2 weeks started on day 4 post bacterial infection by necroscopy in presence of isoniazid; type: organism-based; conditions: in vivo, 336 h
Mus musculus [31] = assay: Toxicity in BALB/c mouse infected with Mycobacterium tuberculosis H37Ra assessed as weight loss at 6.25 to 25 mg/kg, po administered for 2 weeks started on day 4 post bacterial infection in presence of isoniazid; type: organism-based; conditions: in vivo, 336 h
Mus musculus [32] = assay: Toxicity in BALB/c mouse infected with Mycobacterium tuberculosis H37Ra assessed as behavioral changes at 6.25 to 25 mg/kg, po administered for 2 weeks started on day 4 post bacterial infection in presence of isoniazid; type: organism-based; conditions: in vivo, 336 h
Mus musculus [33] = assay: Toxicity in BALB/c mouse infected with Mycobacterium tuberculosis H37Ra assessed as change in urea level in serum at 6.25 to 25 mg/kg, po administered for 2 weeks started on day 4 post bacterial infection in presence of isoniazid; type: organism-based; conditions: in vivo, 336 h
Mus musculus [34] = assay: Toxicity in BALB/c mouse infected with Mycobacterium tuberculosis H37Ra assessed as change in creatinine level in serum at 6.25 to 25 mg/kg, po administered for 2 weeks started on day 4 post bacterial infection in presence of isoniazid; type: organism-based; conditions: in vivo, 336 h
Mus musculus [35] = assay: Toxicity in BALB/c mouse infected with Mycobacterium tuberculosis H37Ra assessed as change in phosphate level in serum at 6.25 to 25 mg/kg, po administered for 2 weeks started on day 4 post bacterial infection in presence of isoniazid; type: organism-based; conditions: in vivo, 336 h
Mus musculus [36] = assay: Toxicity in BALB/c mouse infected with Mycobacterium tuberculosis H37Ra assessed as change in calcium level in serum at 6.25 to 25 mg/kg, po administered for 2 weeks started on day 4 post bacterial infection in presence of isoniazid; type: organism-based; conditions: in vivo, 336 h
Mus musculus [37] = assay: Toxicity in BALB/c mouse infected with Mycobacterium tuberculosis H37Ra assessed as change in cholesterol level in serum at 6.25 to 25 mg/kg, po administered for 2 weeks started on day 4 post bacterial infection in presence of isoniazid; type: organism-based; conditions: in vivo, 336 h
Mus musculus [38] = assay: Toxicity in BALB/c mouse infected with Mycobacterium tuberculosis H37Ra assessed as change in alkaline phosphatase level in serum at 6.25 to 25 mg/kg, po administered for 2 weeks started on day 4 post bacterial infection in presence of isoniazid; type: organism-based; conditions: in vivo, 336 h
Mus musculus [39] = assay: Toxicity in BALB/c mouse infected with Mycobacterium tuberculosis H37Ra assessed as change in amylase level in serum at 6.25 to 25 mg/kg, po administered for 2 weeks started on day 4 post bacterial infection in presence of isoniazid; type: organism-based; conditions: in vivo, 336 h
[40] = Cytotoxicity against African green monkey Vero cells assessed as cell viability after 3 days by XTT assay; type: cell-based; conditions: chlorocebus sabaeus
Mus musculus [41] = assay: Toxicity in BALB/c mouse infected with Mycobacterium tuberculosis H37Ra assessed as gross necroscopy changes at 6.25 to 25 mg/kg, po administered for 2 weeks started on day 4 post bacterial infection; type: organism-based; conditions: in vivo, 336 h

CC[C@H]1OC(=O)[C@H](C)[C@@H](O[C@H]2C[C@@](C)(OC)[C@@H](O)[C@H](C)O2)[C@H](C)[C@@H](O[C@@H]2O[C@H](C)C[C@H](N(C)C)[C@H]2O)[C@](C)(OC)C[C@@H](C)C(=O)[C@H](C)[C@@H](O)[C@]1(C)O [CLARITHROMYCIN]
MIC90 (Mycobacterium avium): 2 µg/mL (≈ 2.67 µM)

CCCCCC#Cc1c[nH]c(=O)nc1N
MIC50 [1]: 12.5 µg/mL (≈ 60.9 µM) | inhibition at 200 µg/mL [2]: 100% | inhibition at 100 µg/mL [3]: 100% | inhibition at 50 µg/mL [4]: 100% | inhibition at 25 µg/mL [5]: 90% | inhibition at 6.25 µg/mL [6]: 100% | inhibition [7]: inactive | fractional inhibitory concentration index (FICI) [8]: 0.37 | inhibition in vivo at 25 mg/kg [9]: 79% | inhibition in vivo at 25 mg/kg [10]: 50% | inhibition in vivo at 25 mg/kg [11]: 51% | inhibition (INH) [12]: 95% | inhibition (INH) [13]: 96% | inhibition (INH) [14]: 70% | Activity [15]: inactive | Activity [16]: inactive | Activity [17]: inactive | inhibition (INH) [18]: 70% | inhibition (INH) [19]: 40% | Activity (Mus musculus [20]): Non-toxic | Activity (Mus musculus [21]): Non-toxic | Activity (Mus musculus [22]): Non-toxic | Activity (Mus musculus [23]): Non-toxic | Activity (Mus musculus [24]): Non-toxic | Activity (Mus musculus [25]): Non-toxic | Activity (Mus musculus [26]): Non-toxic | Activity (Mus musculus [27]): Non-toxic | Activity (Mus musculus [28]): Non-toxic | Activity (Mus musculus [29]): Non-toxic | Activity (Mus musculus [30]): Non-toxic | Activity (Mus musculus [31]): Non-toxic | Activity (Mus musculus [32]): Non-toxic | Activity (Mus musculus [33]): Non-toxic | Activity (Mus musculus [34]): Non-toxic | Activity (Mus musculus [35]): Non-toxic | Activity (Mus musculus [36]): Non-toxic | Activity (Mus musculus [37]): Non-toxic | Activity (Mus musculus [38]): Non-toxic | Activity (Mus musculus [39]): Non-toxic | CC50 at 72 h [40]: > 200 µg/mL | Activity (Mus musculus [41]): Non-toxic
